Experiment: gradient 5% acetonitrile 3 min, to 50% in 2 min, to 85% in 15 min, held 3 min, 100 µL/min
Settings: column: Zorbax Extend-C18 2.1 x 50 mm; eluents: water / acetonitrile, 0.1% formic acid
In short: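 Each retention time is based on an adduct peak selected computationally and verified by manual inspection. Measurements used HPLC–quadrupole time-of-flight mass spectrometry in positive and negative ionization mode on mixtures of ~100 pure standards. Chromatography ran on a Zorbax Extend-C18 column (2.1 × 50 mm, 1.8 μm) at 100 μL/min with water and acetonitrile, each containing 0.1% formic acid, and dead and dwell volumes of 40 μL and 900 μL.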

Row | RP-LC retention time | Compound
1 | 1070 s | COc1cccc(-c2noc(N3CCCCC3)n2)c1
2 | 814 s | O=C(CC1CCCC1)NCCn1c(=O)n(Cc2ccc(F)cc2)c2cccnc21
3 | 651 s | Cc1nnc(C2CCCN(C(=O)c3ccc4nsnc4c3)C2)s1 (stereo unspecified)
4 | 714 s | COc1ccc(-c2nc3cc(C)ccn3c2NC(=O)COc2ccc(Cl)cc2)cc1OC
5 | 639 s | CCC(CC)C(=O)Nc1ccc(-c2nc(-c3ccc(Cl)cc3)no2)cc1
6 | 630 s | COc1ccc(C(C)NC(=O)c2cn3cc(C)ccc3n2)cc1OC (stereo unspecified)
7 | 1100 s | CSc1ccc(-c2noc(Cn3c(=O)n(-c4ccc(Cl)cc4)c(=O)c4sccc43)n2)cc1
8 | 566 s | O=C(CCc1nnc2ccc(N3CCOCC3)nn12)N1CCN(c2ccccn2)CC1
9 | 1210 s | COC(=O)c1ccc2c(=O)n(-c3cccc(F)c3)c(N3CCCCCC3)nc2c1
10 | 1030 s | Cc1cccc(N2CCN(C(=O)C3CCN(c4ncnc5c4oc4ccccc45)CC3)CC2)c1C
11 | 647 s | Cn1c(=O)c2c(ncn2CC(=O)N2CCCn3nc(-c4ccccc4)cc3C2)n(C)c1=O
12 | 705 s | CCc1nnc2ccc(-c3noc(-c4ccc(NC(C)=O)cc4)n3)cn12
13 | 670 s | COc1ccc(-c2noc(CN3CCC(C(=O)NC4CCCCC4)CC3)n2)cc1OC
14 | 671 s | CCOc1cccc(CNC(=O)c2cn3ccc(C)cc3n2)c1

The remaining lines, values behind:

Row | Compound | RP-LC retention time
15 | CCOc1ccccc1NC(=O)Cn1c(=O)c(CCC(=O)NCC(C)C)nc2ccccc21 | 762 s
16 | Cc1ccc(-c2nnc(-c3nn(C)c4c3CN(S(=O)(=O)c3cc(F)ccc3C)CC4)o2)cc1 | 1050 s
17 | Cc1cc(NS(=O)(=O)c2cc3n(c2)CCCNC3=O)ccc1Cl | 711 s
18 | CCOC(=O)CNC(=O)Nc1ccc2c(c1)oc(=O)n2CC | 659 s
19 | Cc1ccccc1-c1nc(C2CC(=O)N(c3ccc(F)c(Cl)c3)C2)no1 (stereo unspecified) | 1140 s
20 | COCCN1CC2(CCCC2)N(Cc2cc(C(F)(F)F)ccc2Cl)CC1=O | 1060 s
21 | O=C(c1ccco1)N1CCN(S(=O)(=O)c2cccc(-c3nc(-c4ccccc4)no3)c2)CC1 | 1060 s
22 | O=S(=O)(NCC1(c2ccc(F)cc2)CC1)c1ccc2c(c1)OCCO2 | 918 s
23 | C[C@H]1CCC/C=C/C2C[C@H](O)C[C@H]2[C@H](O)/C=C/C(=O)O1 (stereo partly specified) | 732 s
24 | CC1(C)CCC(NC(=O)[C@@H](N)CCC(=O)O)CC1 | 654 s
25 | CN1C(=O)c2cc(S(=O)(=O)Nc3ccc(F)cc3F)ccc2Oc2cccnc21 | 887 s
26 | COC(=O)c1cc(S(=O)(=O)N2CCCC2C(=O)Nc2ccc(C(C)C)cc2)cn1C (stereo unspecified) | 1020 s
27 | Cc1ccc(CNC(=O)c2cn(-c3ccc(NC(=O)C(C)C)cn3)cn2)cc1 | 793 s
28 | O=C(Cn1nc2c(Sc3cccc(F)c3)nccn2c1=O)N1CCN(c2ccccc2)CC1 | 914 s
29 | O=C(Nc1ccc(Cl)cc1F)c1cnc(-c2ccccc2)nc1-c1ccncc1 | 982 s
30 | Cc1cc2n(n1)CCCN2C(=O)CCC(=O)N1CCN(c2ccc(Cl)cc2)CC1 | 758 s
31 | CC(C)N1CCN(C(=O)C2=NN(c3ccc(Cl)cc3)c3ncccc3S2(=O)=O)CC1 | 654 s
32 | CC(C)(C)C(=O)N1CCC2(CC1)CN(Cc1ccccc1)CC2CO (stereo unspecified) | 607 s
33 | O=C(CSc1nnc(-c2cccnc2)o1)Nc1c(Cl)cccc1Cl | 654 s
34 | CN(C)CCNC(=O)c1ccc(CS(=O)c2ccc(F)cc2)o1 (stereo unspecified) | 569 s
35 | Cc1ccc(OCC(=O)N(Cc2ccc(N(C)C)cc2)Cc2ccco2)cc1 | 795 s
36 | Clc1ccccc1C1Cn2cnc(-c3nc(-c4cccnc4)no3)c2CO1 (stereo unspecified) | 825 s
